Our source for the IC50 values is patent US12139499B2, “Heteroaryl compounds for treating Huntington's disease” (PTC THERAPEUTICS, INC., priority 2018, dated 2024).

SMILES strings stand for the structures.

For this assay, the system named is Endogenous Huntingtin Protein. Kind of assay: Endogenous Huntingtin Protein Assay (ELISA-based MSD electrochemiluminescence). It counts as cell-based. The following applies: Table 1. In short, it runs like this:
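Huntingtin was captured overnight at 4 °C on plates coated with 1 μg/mL MW1 (polyQ-expanded) or MAB2166 antibody and BSA-blocked. Detection used a rabbit monoclonal and then a SULFO-TAG goat anti-rabbit antibody (0.25 μg/mL, 1 h each, room temperature). Signal was read by electrochemiluminescence.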
`Cc1nn2cc(-c3cc4sc(N(C)C5CC(C)(C)NC(C)(C)C5)nc4cn3)nc2s1` [Compound 308, N-methyl-6-(2-methylimidazo[2,1-b][1,3,4]thiadiazol-6-yl)-N-(2,2,6,6-tetramethylpiperidin-4-yl)[1,3]thiazolo[4,5-c]pyridin-2-amine] came in with an IC50 of 1000 to 3000 nM.

For the molecule `Cn1cc2cc(-c3ncc4nc(C5CCNCC5)sc4n3)cc(C#N)c2n1` [Compound 109, 2-methyl-5-[2-(piperidin-4-yl)[1,3]thiazolo[5,4-d]pyrimidin-5-yl]-2H-indazole-7-carbonitrile], the half-maximal inhibitory concentration (IC50) is 100 to 500 nM.

On to `Cc1cc(-c2cc3sc(N(C)C4CC(C)(C)NC(C)(C)C4)nc3cn2)cc2cn(C)nc12` [Compound 31, 6-(2,7-dimethyl-2H-indazol-5-yl)-N-methyl-N-(2,2,6,6-tetramethylpiperidin-4-yl)[1,3]thiazolo[4,5-c]pyridin-2-amine], for which the IC50 was at most 100 nM.

Regarding `Cc1cn2nc(-c3cc(F)c4nc(C5CCN[C@H](C)C5)sc4c3)ccc2n1` (stereo partly drawn) [Compound 144, 6-{4-fluoro-2-[(2R)-2-methylpiperidin-4-yl]-1,3-benzothiazol-6-yl}-2-methylimidazo[1,2-b]pyridazine], the IC50 is at most 100 nM.

With `C[C@H]1C[C@@H](N(C)c2nc3nnc(-c4ccc(-c5cn[nH]c5)cc4O)cc3s2)CCN1C` [Compound 395, 2-(6-{[(2S,4S)-1,2-dimethylpiperidin-4-yl](methyl)amino}[1,3]thiazolo[4,5-c]pyridazin-3-yl)-5-(1H-pyrazol-4-yl)phenol], the IC50 is at most 100 nM.

Take `Cc1cn2nc(-c3ncc4nc(N(C)C5CC(C)(C)NC(C)(C)C5)sc4n3)cc(C)c2n1` [Compound 184, 5-(2,8-dimethylimidazo[1,2-b]pyridazin-6-yl)-N-methyl-N-(2,2,6,6-tetramethylpiperidin-4-yl)[1,3]thiazolo[5,4-d]pyrimidin-2-amine]: the concentration for half-maximal inhibition (IC50) lay within 1000 to 3000 nM.

In the case of `Cn1cc2cc(-c3ccc4nc(C5CCCNCC5)sc4c3)ccc2n1` (stereo not drawn) [Compound 42, 2-(azepan-4-yl)-6-(2-methyl-2H-indazol-5-yl)-1,3-benzothiazole], the half-inhibitory concentration (IC50) is 100 to 500 nM.

With `CCCN1CCC(N(C)c2nc3nnc(-c4ccc(-c5cn[nH]c5)cc4O)cc3s2)CC1` [Compound 393, 2-{6-[methyl(1-propylpiperidin-4-yl)amino][1,3]thiazolo[4,5-c]pyridazin-3-yl]-5-(1H-pyrazol-4-yl)phenol], the IC50 lay within 1000 to 3000 nM.

Molecule `CN(c1nc2ccc(-c3cc(F)c4nn(C)cc4c3)nc2s1)C1CC2(C)CCC(C)(C1)N2` [Compound 294, N-[(1R,3s,5S)-1,5-dimethyl-8-azabicyclo[3.2.1]octan-3-yl]-5-(7-fluoro-2-methyl-2H-indazol-5-yl)-N-methyl[1,3]thiazolo[5,4-b]pyridin-2-amine] came in with a concentration for half-maximal inhibition (IC50) of 100 to 500 nM.

In the case of `Cn1cc2cc(-c3ccc4nc(C5CC(C)(C)NC(C)(C)C5)sc4c3)ccc2n1` [Compound 52, 6-(2-methyl-2H-indazol-5-yl)-2-(2,2,6,6-tetramethylpiperidin-4-yl)-1,3-benzothiazole], the IC50 was in the range of 1000 to 3000 nM.

`CN(c1nc2cnc(-c3cc(F)c4nn(C)cc4c3)cc2s1)C1CC(C)(C)NC(C)(C)C1` [Compound 86, 6-(7-fluoro-2-methyl-2H-indazol-5-yl)-N-methyl-N-(2,2,6,6-tetramethylpiperidin-4-yl)[1,3]thiazolo[4,5-c]pyridin-2-amine] came in with a 50% inhibitory concentration (IC50) of at most 100 nM.

Consider `Cc1cn2cc(-c3ncc4nc(N(C)[C@@H]5CC(C)(C)NC(C)(C)[C@@H]5F)sc4n3)cc(C#N)c2n1` [Compound 324, 6-(2-{[(3R,4R)-3-fluoro-2,2,6,6-tetramethylpiperidin-4-yl](methyl)amino}[1,3]thiazolo[5,4-d]pyrimidin-5-yl)-2-methylimidazo[1,2-a]pyridine-8-carbonitrile], for which the 50% inhibitory concentration (IC50) was at most 100 nM.

`Cn1cc2cc(-c3ccc4nc(C5=CCCNCC5)sc4c3)ccc2n1` [Compound 56, 6-(2-methyl-2H-indazol-5-yl)-2-(2,3,6,7-tetrahydro-1H-azepin-4-yl)-1,3-benzothiazole] gave an IC50 of 500 to 1000 nM.

For the molecule `Cc1cn2nc(-c3cc(F)c4nc(C5CCNCC5)sc4c3)cc(OCc3ccccc3)c2n1` [Compound 187, 8-(benzyloxy)-6-[4-fluoro-2-(piperidin-4-yl)-1,3-benzothiazol-6-yl]-2-methylimidazo[1,2-b]pyridazine], the half-maximal inhibitory concentration (IC50) is at most 100 nM.

In turn, `Cc1cn2cc(-c3ncc4nc(N(C)[C@H]5C[C@]6(C)CC[C@](C)(C5)N6)sc4n3)cc2c(C)n1` [Compound 323, N-[(1R,3s,5S)-1,5-dimethyl-8-azabicyclo[3.2.1]octan-3-yl]-5-(1,3-dimethylpyrrolo[1,2-a]pyrazin-7-yl)-N-methyl[1,3]thiazolo[5,4-d]pyrimidin-2-amine] had an IC50 of at most 100 nM.

`Cc1cn2nc(-c3ccc4nc(C5CCNCC5)sc4c3)cc(C)c2n1` [Compound 139, 2,8-dimethyl-6-[2-(piperidin-4-yl)-1,3-benzothiazol-6-yl]imidazo[1,2-b]pyridazine] came in with an IC50 of at most 100 nM.

Molecule `CN1CC[C@H](N(C)c2nc3nnc(-c4ccc(-c5cn[nH]c5)cc4O)cc3s2)C[C@H]1CO` [Compound 372, 2-(6-{[(2S,4S)-2-(hydroxymethyl)-1-methylpiperidin-4-yl](methyl)amino}[1,3]thiazolo[4,5-c]pyridazin-3-yl)-5-(1H-pyrazol-4-yl)phenol] gave an IC50 of at most 100 nM.

`CN1C[C@H](F)[C@H](Nc2nc3nnc(-c4ccc(-c5cn[nH]c5)cc4O)cc3s2)C1` [Compound 336, 2-(6-{[(3R,4S)-4-fluoro-1-methylpyrrolidin-3-yl]amino}[1,3]thiazolo[4,5-c]pyridazin-3-yl)-5-(1H-pyrazol-4-yl)phenol]: the half-maximal inhibitory concentration (IC50) was in the range of 1000 to 3000 nM.

Turning to `Oc1cc(-c2cn[nH]c2)ccc1-c1cc2sc(N3CC[C@H]4CNCC[C@H]43)nc2nn1` [Compound 344, 2-{6-[(3aS,7aR)-octahydro-1H-pyrrolo[3,2-c]pyridin-1-yl][1,3]thiazolo[4,5-c]pyridazin-3-yl]-5-(1H-pyrazol-4-yl)phenol], the concentration for half-maximal inhibition (IC50) was at most 100 nM.

Molecule `Cc1cn2nc(-c3cc(F)c4nc(N5CCNCC5)sc4c3)cc(C)c2n1` [Compound 120, 6-[4-fluoro-2-(piperazin-1-yl)-1,3-benzothiazol-6-yl]-2,8-dimethylimidazo[1,2-b]pyridazine] returned an IC50 of at most 100 nM.

As for `CC1(C)C=C(c2cc3sc(-c4ccc(-c5cn[nH]c5)cc4O)nc3cn2)CC(C)(C)N1` [Compound 337, 5-(1H-pyrazol-4-yl)-2-[6-(2,2,6,6-tetramethyl-1,2,3,6-tetrahydropyridin-4-yl)[1,3]thiazolo[4,5-c]pyridin-2-yl]phenol], the concentration for half-maximal inhibition (IC50) lay within 500 to 1000 nM.

Turning to `CN1C[C@H](F)[C@@H](N(C)c2nc3nnc(-c4ccc(-c5cn[nH]c5)cc4O)cc3s2)C1` [Compound 382, 2-(6-{[(3S,4S)-4-fluoro-1-methylpyrrolidin-3-yl](methyl)amino}[1,3]thiazolo[4,5-c]pyridazin-3-yl)-5-(1H-pyrazol-4-yl)phenol], the IC50 lay within 100 to 500 nM.

Molecule `Cn1cc2cc(-c3ccc4nc(C5=CCNCC5)sc4c3)ccc2n1` [Compound 1, 6-(2-methyl-2H-indazol-5-yl)-2-(1,2,3,6-tetrahydropyridin-4-yl)-1,3-benzothiazole] showed a half-maximal inhibitory concentration (IC50) of 100 to 500 nM.

As to `Cc1cn2nc(-c3cc(F)c4nc(N(C)C5CC6CCC(C5)N6)sc4c3)cc(C#N)c2n1` (stereo not drawn) [Compound 235, 6-{2-[(3-exo)-8-azabicyclo[3.2.1]oct-3-yl(methyl)amino]-4-fluoro-1,3-benzothiazol-6-yl}-2-methylimidazo[1,2-b]pyridazine-8-carbonitrile], the half-maximal inhibitory concentration (IC50) was at most 100 nM.

`Cc1cn2cc(-c3cnc4nc(N5CCNCC5)sc4n3)cc(F)c2n1` [Compound 174, 6-(8-fluoro-2-methylimidazo[1,2-a]pyridin-6-yl)-2-(piperazin-1-yl)[1,3]thiazolo[4,5-b]pyrazine] gave an IC50 of 1000 to 3000 nM.

`Cn1cc2cc(-c3cc4sc(OC5CC(C)(C)NC(C)(C)C5)nc4cn3)cc(F)c2n1` [Compound 312, 6-(7-fluoro-2-methyl-2H-indazol-5-yl)-2-[(2,2,6,6-tetramethylpiperidin-4-yl)oxy][1,3]thiazolo[4,5-c]pyridine] had a 50% inhibitory concentration (IC50) of 100 to 500 nM.

Molecule `Cc1cc(-c2cc(O)c3nc(C4=CCNCC4)sc3c2)cc2cn(C)nc12` [Compound 100, 6-(2,7-dimethyl-2H-indazol-5-yl)-2-(1,2,3,6-tetrahydropyridin-4-yl)-1,3-benzothiazol-4-ol] yielded an IC50 of 500 to 1000 nM.

`Cc1cn2nc(-c3cc(F)c4nc(C5CCNCC5)sc4c3)cc(O)c2n1` [Compound 189, 6-[4-fluoro-2-(piperidin-4-yl)-1,3-benzothiazol-6-yl]-2-methylimidazo[1,2-b]pyridazin-8-ol] came in with a 50% inhibitory concentration (IC50) of 100 to 500 nM.

`CC1CC(c2nc3ccc(-c4ccc5nn(C)cc5c4)cc3s2)=CCN1` (stereo not drawn) [Compound 65, 6-(2-methyl-2H-indazol-5-yl)-2-(2-methyl-1,2,3,6-tetrahydropyridin-4-yl)-1,3-benzothiazole]: the IC50 was 100 to 500 nM.

`Cc1cn2cc(-c3cc(F)c4nc(OC5CCNCC5)sc4c3)cc(C)c2n1` [Compound 319, 6-(2,8-dimethylimidazo[1,2-a]pyridin-6-yl)-4-fluoro-2-[(piperidin-4-yl)oxy]-1,3-benzothiazole] returned a half-maximal inhibitory concentration (IC50) of at most 100 nM.

Molecule `Cc1cn2cc(-c3cc4sc(N(C)C5CC6CCCC(C5)N6)nc4cn3)cc(C)c2n1` (stereo not drawn) [Compound 261, N-(9-azabicyclo[3.3.1]non-3-yl)-6-(2,8-dimethylimidazo[1,2-a]pyridin-6-yl)-N-methyl[1,3]thiazolo[4,5-c]pyridin-2-amine] yielded an IC50 of at most 100 nM.

In turn, `Cc1cn2cc(-c3ncc4nc(N(C)C5C[C@H]6CCC[C@@H](C5)N6)sc4n3)cc(C#N)c2n1` (stereo partly drawn) [Compound 256, 6-{2-[(1R,5S)-9-azabicyclo[3.3.1]non-3-yl(methyl)amino][1,3]thiazolo[5,4-d]pyrimidin-5-yl}-2-methylimidazo[1,2-a]pyridine-8-carbonitrile] showed an IC50 of at most 100 nM.

With `Cc1cc(-c2ncc3nc(C4CCNCC4)sc3n2)cc2cn(C)nc12` [Compound 110, 5-(2,7-dimethyl-2H-indazol-5-yl)-2-(piperidin-4-yl)[1,3]thiazolo[5,4-d]pyrimidine], the 50% inhibitory concentration (IC50) lay in the range of 100 to 500 nM.
